Consider nine molecules from ChEMBL document CHEMBL4033701, “Cytotoxic triterpene diglycosides from the sea cucumber Stichopus horrens” (Bioorg Med Chem Lett, 2017).

As usually defined, the IC50 is the concentration that inhibits the measured activity by half. Low values mean higher potency, high ones lower potency.

What all share (type): functional, cell-based
In assay [1] the test system is HepG2. As to the kind of experiment: Cytotoxicity against human HepG2 cells after 72 hrs by SRB assay. As to conditions: HepG2, 72 h.
Assay [2] relates to SK-MEL-2. As to the kind of experiment: Cytotoxicity against human SK-MEL-2 cells after 72 hrs by SRB assay. As to conditions: SK-MEL-2, 72 h. Background: The SRB assay estimates cell density from bound dye.
The test system of assay [3] is LNCaP. As to the kind of experiment: Cytotoxicity against human LNCAP cells after 72 hrs by SRB assay.
For assay [4], the system named is MCF7. The experiment in a line: Cytotoxicity against human MCF7 cells after 72 hrs by SRB assay. As to conditions: MCF7, 72 h.
The test system of assay [5] is KB. As to the kind of experiment: Cytotoxicity against human KB cells after 72 hrs by SRB assay.

Consider `C=C(C)C[C@@H](C[C@]1(C)OC(=O)[C@]23CC[C@H]4C(=CC[C@H]5C(C)(C)[C@@H](O[C@@H]6OC[C@@H](O)[C@H](O)[C@H]6O[C@@H]6O[C@H](CO)[C@@H](O)[C@H](O)[C@H]6O)CC[C@]45C)[C@]2(C)CC[C@@H]31)OC(C)=O`, for which the IC50 in assay [1] was 7.03 µM; in assay [2], 10.8 µM; in assay [3], 10.1 µM; in assay [4], 7.25 µM; in assay [5], 11 µM.

On to `CC(=O)O[C@@H](CC(C)C)C[C@]1(C)OC(=O)[C@]23CC[C@H]4C(=CC[C@H]5C(C)(C)[C@@H](O[C@@H]6OC[C@@H](O)[C@H](O)[C@H]6O[C@@H]6O[C@H](C)[C@@H](O)[C@H](O)[C@H]6O)CC[C@]45C)[C@]2(C)CC[C@@H]31`, for which the IC50 is 2.97 µM in assay [1]; 2.7 µM in assay [2]; 3.02 µM in assay [3]; 2.12 µM in assay [4]; 2.82 µM in assay [5].

On to `C=C(C)CCC(O)[C@]1(C)OC(=O)[C@]23CC[C@H]4C(=CC[C@H]5C(C)(C)[C@@H](O[C@@H]6OC[C@@H](O)[C@H](O)[C@H]6O[C@@H]6O[C@H](CO)[C@@H](O)[C@H](O)[C@H]6O)CC[C@]45C)[C@]2(C)CC[C@H]13` (stereo partly drawn), for which the IC50 in assay [1] came out at 37.9 µM; in assay [2], 43.5 µM; in assay [3], 51.6 µM; in assay [4], 41.9 µM; in assay [5] it was 33.5 µM.

On to `C=C(C)CCC(O)[C@]1(C)OC(=O)[C@]23CC[C@H]4C(=CC[C@H]5C(C)(C)[C@@H](O[C@@H]6OC[C@@H](O)[C@H](O)[C@H]6O[C@@H]6O[C@H](CO)[C@@H](OS(=O)(=O)O)[C@H](O)[C@H]6O)CC[C@]45C)[C@]2(C)CC[C@H]13` (stereo partly drawn), for which the concentration for half-maximal inhibition (IC50) in assay [1] came out at 55.3 µM; in assay [2], 67.2 µM; in assay [3] it was 51.5 µM; in assay [4], 59.5 µM; in assay [5], 45.4 µM.

Turning to `C=C(C)C[C@@H](C[C@]1(C)OC(=O)[C@]23CC[C@H]4C(=CC[C@H]5C(C)(C)[C@@H](O[C@@H]6OC[C@@H](O)[C@H](O)[C@H]6O[C@@H]6OC[C@@H](O)[C@H](O)[C@H]6O)CC[C@]45C)[C@]2(C)CC[C@@H]31)OC(C)=O`, the IC50 was 1.92 µM in assay [1]; 2.27 µM in assay [2]; 3.13 µM in assay [3]; 2.11 µM in assay [4]; 2.36 µM in assay [5].

With `Cc1c2ccncc2c(C)c2c1[nH]c1ccccc12` [ELLIPTECINE], the IC50 in assay [2] is 1.91 µM; in assay [3] it was 1.95 µM; in assay [5] it was 1.79 µM.

Consider `CC(=O)O[C@@H](CC(C)C)C[C@]1(C)OC(=O)[C@]23CC[C@H]4C(=CC[C@H]5C(C)(C)[C@@H](O[C@@H]6OC[C@@H](O)[C@H](O)[C@H]6O[C@@H]6O[C@H](CO)[C@@H](O)[C@H](O)[C@H]6O)CC[C@]45C)[C@]2(C)CC[C@@H]31`, for which the IC50 in assay [1] came out at 5.28 µM; in assay [2] it was 5.77 µM; in assay [3], 7.6 µM; in assay [4] it was 6.36 µM; in assay [5], 8.86 µM.

As to `CC(=O)O[C@@H](CC(C)C)C[C@]1(C)OC(=O)[C@]23CC[C@H]4C(=CC[C@H]5C(C)(C)[C@@H](O[C@@H]6OC[C@@H](O)[C@H](O)[C@H]6O[C@@H]6OC[C@@H](O)[C@H](O)[C@H]6O)CC[C@]45C)[C@]2(C)CC[C@@H]31`, the IC50 in assay [1] is 2.04 µM; in assay [2], 2.21 µM; in assay [3] it was 2.7 µM; in assay [4], 2.08 µM; in assay [5] it was 3.11 µM.

Regarding `CC(C)C[C@H](O)C[C@]1(C)OC(=O)[C@]23CC[C@H]4C(=CC[C@H]5C(C)(C)[C@@H](O[C@@H]6OC[C@@H](O)[C@H](O)[C@H]6O[C@@H]6OC[C@@H](O)[C@H](O)[C@H]6O)CC[C@]45C)[C@]2(C)CC[C@@H]31`, the IC50 was found to be 53.8 µM in assay [1]; 41.9 µM in assay [2]; 59.3 µM in assay [3]; 52.2 µM in assay [4]; 48.4 µM in assay [5].
